Data taken from ChEMBL document CHEMBL1201862, “PubChem BioAssay data set” (2004).
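A five-concentration, 48-hour dose response in 96-well plates underlies each endpoint, interpolated linearly between surrounding concentrations. GI50 marks 50% less growth.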 The source made the active and inactive calls. Cut-off read from the data, not from the text of the source: active = GI50 up to about 1.1 µM and inactive = higher.

Assays:
Assay in all cases: inhibition of tumour cell growth, NCI panel, 48 h
T47D = system: T47D
KM12 = system: KM12
HCC 2998 = system: HCC 2998
SNB-75 = system: SNB-75
SN12C = system: SN12C
SK-MEL-2 = system: SK-MEL-2
NCI-H522 = system: NCI-H522
DU-145 = system: DU-145
PC-3 = system: PC-3
CAKI-1 = system: CAKI-1
NCI-H23 = system: NCI-H23
SK-MEL-28 = system: SK-MEL-28
BT-549 = system: BT-549
MDA-MB-231 = system: MDA-MB-231
SK-OV-3 = system: SK-OV-3
NCI-H226 = system: NCI-H226
M14 = system: M14
SK-MEL-5 = system: SK-MEL-5
Hs-578T = system: Hs-578T
LOX IMVI = system: LOX IMVI

Compound | GI50 (T47D) | GI50 (KM12) | GI50 (HCC 2998) | GI50 (SNB-75) | GI50 (SN12C) | GI50 (SK-MEL-2) | GI50 (NCI-H522) | GI50 (DU-145) | GI50 (PC-3) | GI50 (CAKI-1) | GI50 (NCI-H23) | GI50 (SK-MEL-28) | GI50 (BT-549) | GI50 (MDA-MB-231) | GI50 (SK-OV-3) | GI50 (NCI-H226) | GI50 (M14) | GI50 (SK-MEL-5) | GI50 (Hs-578T) | GI50 (LOX IMVI)
CCSCCCC(=O)O | > 100 µM (inactive) | > 100 µM (inactive) | > 100 µM (inactive) | > 100 µM (inactive) | > 100 µM (inactive) | > 100 µM (inactive) | > 100 µM (inactive) | > 100 µM (inactive) | > 100 µM (inactive) | > 100 µM (inactive) | > 100 µM (inactive) | > 100 µM (inactive) | > 100 µM (inactive) | > 100 µM (inactive) | > 100 µM (inactive) | > 100 µM (inactive) | > 100 µM (inactive) | > 100 µM (inactive) | > 100 µM (inactive) | > 100 µM (inactive)
CCOC(=O)C(NC(=O)CC)(Nc1ccc(S(=O)(=O)Nc2onc(C)c2C)cc1)C(F)(F)F (centres undefined) | > 100 µM (inactive) | > 100 µM (inactive) | > 100 µM (inactive) | 14.9 µM (inactive) | > 100 µM (inactive) | > 100 µM (inactive) | > 100 µM (inactive) | > 100 µM (inactive) | > 100 µM (inactive) | > 100 µM (inactive) | > 100 µM (inactive) | > 100 µM (inactive) | > 100 µM (inactive) | > 100 µM (inactive) | > 100 µM (inactive) | > 100 µM (inactive) | > 100 µM (inactive) | > 100 µM (inactive) | > 100 µM (inactive) | > 100 µM (inactive)
CCOc1cnc(C(O)(c2ccccc2)c2ccccc2)o1 | > 100 µM (inactive) | > 100 µM (inactive) | > 100 µM (inactive) | > 100 µM (inactive) | > 100 µM (inactive) | > 100 µM (inactive) | > 100 µM (inactive) | > 100 µM (inactive) | > 100 µM (inactive) | > 100 µM (inactive) | > 100 µM (inactive) | > 100 µM (inactive) | > 100 µM (inactive) | > 100 µM (inactive) | > 100 µM (inactive) | > 100 µM (inactive) | > 100 µM (inactive) | > 100 µM (inactive) | > 100 µM (inactive) | 69.7 µM (inactive)
COc1ccc2nc(C)cc(NCCCCCCCCCNc3cc(C)nc4ccc(OC)cc34)c2c1 | 1.73 µM (inactive) | 1.26 µM (inactive) | 1.4 µM (inactive) | 4.14 µM (inactive) | 3.6 µM (inactive) | 3.79 µM (inactive) | 0.834 µM (active) | 6.07 µM (inactive) | 1.02 µM (active) | 6.67 µM (inactive) | 1.73 µM (inactive) | 15 µM (inactive) | 8.95 µM (inactive) | 1.27 µM (inactive) | 8.79 µM (inactive) | 6.18 µM (inactive) | 1.95 µM (inactive) | 1.71 µM (inactive) | 1.64 µM (inactive) | 0.714 µM (active)
CC(C)=CCC[C@@H](C)C1=C(O)C(=O)C(C)=C(Nc2ccccc2Cl)C1=O | 12.6 µM (inactive) | 10.8 µM (inactive) | 20.6 µM (inactive) | 8.75 µM (inactive) | 25.1 µM (inactive) | 15.5 µM (inactive) | 6.25 µM (inactive) | 36.2 µM (inactive) | 18.5 µM (inactive) | 16 µM (inactive) | 12.5 µM (inactive) | 26.5 µM (inactive) | 32.4 µM (inactive) | 40.4 µM (inactive) | 27.1 µM (inactive) | 13.1 µM (inactive) | 21.4 µM (inactive) | 16.8 µM (inactive) | 21.7 µM (inactive) | 8.57 µM (inactive)
O=C1CNc2cc(N3CCOCC3)ccc2N1 | > 100 µM (inactive) | > 100 µM (inactive) | > 100 µM (inactive) | > 100 µM (inactive) |  | > 100 µM (inactive) | > 100 µM (inactive) | > 100 µM (inactive) | > 100 µM (inactive) | > 100 µM (inactive) | > 100 µM (inactive) | > 100 µM (inactive) | > 100 µM (inactive) | > 100 µM (inactive) | > 100 µM (inactive) | > 100 µM (inactive) | > 100 µM (inactive) | > 100 µM (inactive) | 57.3 µM (inactive) | > 100 µM (inactive)
Cn1c(N)c(/C=C/C(=O)Oc2ccccc2)c(=O)n(C)c1=O | 85.3 µM (inactive) | > 100 µM (inactive) | > 100 µM (inactive) | 24.2 µM (inactive) | 45.6 µM (inactive) | > 100 µM (inactive) | > 100 µM (inactive) | 99.8 µM (inactive) | > 100 µM (inactive) | 29 µM (inactive) | > 100 µM (inactive) | > 100 µM (inactive) | > 100 µM (inactive) | > 100 µM (inactive) | 56.5 µM (inactive) | 47.4 µM (inactive) | > 100 µM (inactive) | > 100 µM (inactive) | 36 µM (inactive) | > 100 µM (inactive)
O=C(c1ccc(Cl)cc1Cl)N(Cc1cccnc1)C(=S)N(Cc1cccnc1)C(=O)c1ccc(Cl)cc1Cl | 11.4 µM (inactive) | 2.96 µM (inactive) | 3.4 µM (inactive) | 4.07 µM (inactive) | 4.68 µM (inactive) | 3.58 µM (inactive) | 2.94 µM (inactive) | 3.39 µM (inactive) | 2.4 µM (inactive) | 11.6 µM (inactive) | 12.2 µM (inactive) | 10.9 µM (inactive) | 3.72 µM (inactive) | 2.75 µM (inactive) | 19.3 µM (inactive) | 16.7 µM (inactive) | 3.01 µM (inactive) | 3.33 µM (inactive) | 21 µM (inactive) | 3.64 µM (inactive)
COC(=O)c1cc2/c(=N/O)c3ccccc3sc2o1 | > 100 µM (inactive) | > 100 µM (inactive) | > 100 µM (inactive) | > 100 µM (inactive) | > 100 µM (inactive) | > 100 µM (inactive) | > 100 µM (inactive) | > 100 µM (inactive) | > 100 µM (inactive) | > 100 µM (inactive) | > 100 µM (inactive) | > 100 µM (inactive) | > 100 µM (inactive) | > 100 µM (inactive) | > 100 µM (inactive) | > 100 µM (inactive) | > 100 µM (inactive) | > 100 µM (inactive) | 55.5 µM (inactive) | > 100 µM (inactive)
O=C(O[C@H]1[C@@H](O)[C@H](n2cnc3c(Cl)ncnc32)O[C@@H]1COC(c1ccccc1)(c1ccccc1)c1ccccc1)c1ccccc1 | 3.98 µM (inactive) | 16.1 µM (inactive) | 16.1 µM (inactive) | 45.4 µM (inactive) | 11.9 µM (inactive) | 21.2 µM (inactive) | 5.09 µM (inactive) | 1.91 µM (inactive) | 11 µM (inactive) | 2.62 µM (inactive) | 20.4 µM (inactive) | 46.3 µM (inactive) | 18.2 µM (inactive) | 21.2 µM (inactive) | 71 µM (inactive) | 13 µM (inactive) | 26.3 µM (inactive) | 8.47 µM (inactive) | 2.9 µM (inactive) | 4.91 µM (inactive)
